In patent US10611740B2, “Aryl dihydro-2H-benzo[b][1,4]oxazine sulfonamide and related compounds for use as agonists of RORγ and the treatment of disease” (Lycera Corporation, priority 2015, dated 2020):

Key:
Gal4-RORγ-LBD = target: T1, Gal4-RORγ-LBD (Homo sapiens, UniProt P51449); assay: Gal4-RORγ Luciferase Reporter Assay in HEK-293T Cells; assay type: cell-based; details: HEK-293 cells
T1 construct: expressed in transfected cells; host or cells: HEK-293 cells (pcDNA3.1neo plasmid)
T1 sequence (P51449 269-508 limits assumed): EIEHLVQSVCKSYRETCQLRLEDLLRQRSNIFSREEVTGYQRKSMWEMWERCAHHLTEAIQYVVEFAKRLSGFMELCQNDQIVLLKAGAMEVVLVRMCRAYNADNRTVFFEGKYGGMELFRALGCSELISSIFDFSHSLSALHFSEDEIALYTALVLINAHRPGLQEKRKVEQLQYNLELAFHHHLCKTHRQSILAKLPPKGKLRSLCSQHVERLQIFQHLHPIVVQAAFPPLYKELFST
Method in brief: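 Luminescence read-out (One-Glo, 10 min RT) after overnight compound exposure at 37 °C in HEK-293 cells carrying Gal4-RORγ-LBD plus a Gal4-luciferase reporter, in the presence of 2 μM ursolic acid. Max Response is the upper plateau from a 4-parameter logistic fit, normalized to untreated signal = 100.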

RORγ-LBD = target: T2, RORγ-LBD (Homo sapiens, UniProt P51449); assay: RORγ-Ligand Binding Domain (LBD) TR-FRET Assay; assay type: biochemical;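 for TR-FRET Assay Max Response: 665/615 nm ratio relative to signal without ursolic acid or compound set at 100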
T2 construct: made in house; host or cells: SF9 cells (baculovirus)
T2 sequence (P51449 269-508 limits assumed): T1 sequence (P51449 269-508 limits assumed)
Method in brief: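 TR-FRET read-out using a biotin-tagged SRC1 coactivator LXXLL peptide (200 nM final), with the antagonist ursolic acid present at 2 μM final. Receptor is His-tagged LBD expressed in SF9 cells, ~3 nM final in pH 7.0 Tris/KCl/EDTA/DTT/BSA buffer; compounds in 1% DMSO final.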

[1] = luciferase reporter, with 2 μM ursolic acid

EC50 (Gal4-RORγ-LBD; [1])	EC50 (RORγ-LBD)	EC50 (Gal4-RORγ-LBD; 2 μM ursolic acid)	Compound	Gal4-RORγ Assay Max Response (Gal4-RORγ-LBD; [1])	TR-FRET Assay Max Response (RORγ-LBD)	Gal4-RORγ Assay Max Response (Gal4-RORγ-LBD; 2 μM ursolic acid)
< 500 nM	< 500 nM		O=C(O)CC[C@H]1CN(S(=O)(=O)c2cccc(C(F)(F)F)c2)c2cc(-c3cccc(F)c3F)c(Cl)cc2O1 [Compound 22B, (S)-3-(7-chloro-6-(2,3-difluorophenyl)-4-((3-(trifluoromethyl)phenyl)sulfonyl)-3,4-dihydro-2H-benzo[b][1,4]-oxazin-2-yl)propanoic acid]	** (The symbol “**” indicates a value in the range of greater than 90 to 150)	**** (The symbol “****” indicates a value greater than 200)	
	< 500 nM	500 to 5000 nM	CC(=O)N[C@H]1C[C@@](C[C@H]2CN(S(=O)(=O)c3cccc(C(F)(F)F)c3)c3cc(-c4cc(F)cc(OC(F)F)c4)ccc3O2)(C(=O)O)C1 [Compound 84, (1s,3R)-3-acetamido-1-(((S)-6-(3-(difluoromethoxy)-5-fluorophenyl)-4-((3-(trifluoromethyl)phenyl)sulfonyl)-3,4-dihydro-2H-benzo[b][1,4]oxazin-2-yl)methyl)cyclobutane-1-carboxylic acid]		** (The symbol “**” indicates a value in the range of greater than 90 to 150)	* (The symbol “*” indicates a value in the range of 25 to 90)
< 500 nM	< 500 nM		NS(=O)(=O)CCC(=O)NC[C@H]1CN(S(=O)(=O)c2cccc(C(F)(F)F)c2)c2cc(-c3cc(F)ccc3F)ccc2O1 [Compound 30AL, (S)-N-((6-(2,5-difluorophenyl)-4-((3-(trifluoromethyl)phenyl)-sulfonyl)-3,4-dihydro-2H-benzo[b][1,4]oxazin-2-yl)methyl)-3-sulfamoyl-propanamide]	* (The symbol “*” indicates a value in the range of 25 to 90)	**** (The symbol “****” indicates a value greater than 200)	
500 to 5000 nM	500 to 5000 nM		Cc1nn(C)c(C)c1-c1ccc2c(c1)N(S(=O)(=O)c1cccc(C(F)(F)F)c1)C[C@H](CCC(=O)O)O2 [Compound 4U, (S)-3-(4-((3-(trifluoromethyl)-phenyl)sulfonyl)-6-(1,3,5-trimethyl-1H-pyrazol-4-yl)-3,4-dihydro-2H-benzo[b][1,4]-oxazin-2-yl)propanoic acid]	* (The symbol “*” indicates a value in the range of 25 to 90)	* (The symbol “*” indicates a value in the range of 25 to 90)	
	< 500 nM	< 500 nM	O=C(NC[C@H]1CN(S(=O)(=O)c2cccc(C(F)(F)F)c2)c2cc(-c3cccc(F)c3Cl)ccc2O1)C(=O)C1CC1 [Compound 30CA, (S)-N-((6-(2-chloro-3-fluoro-phenyl)-4-((3-(trifluoromethyl)-phenyl)sulfonyl)-3,4-dihydro-2H-benzo[b][1,4]oxazin-2-yl)methyl)-2-cyclopropyl-2-oxoacetamide]		*** (The symbol “***” indicates a value in the range of greater than 150 to 200)	* (The symbol “*” indicates a value in the range of 25 to 90)
< 500 nM	< 500 nM		CN(C)S(=O)(=O)NC[C@H]1CN(S(=O)(=O)c2cccc(C(F)(F)F)c2)c2cc(-c3cc(F)ccc3F)ccc2O1 [Compound 45A, ([[(2S)-6-(2,5-difluorophenyl)-4-[[3-(trifluoromethyl)-benzene]-sulfonyl]-3,4-dihydro-2H-1,4-benzoxazin-2-yl]methyl]sulfamoyl)-(dimethyl)amine]	** (The symbol “**” indicates a value in the range of greater than 90 to 150)	**** (The symbol “****” indicates a value greater than 200)	
	< 500 nM	< 500 nM	CC(=O)N[C@H]1C[C@](C[C@H]2CN(S(=O)(=O)c3cccc(C(F)(F)F)c3)c3cc(-c4cc(F)cc(OC(F)F)c4)ccc3O2)(C(=O)O)C1 [Compound 85, (1r,3S)-3-acetamido-1-(((S)-6-(3-(difluoromethoxy)-5-fluorophenyl)-4-((3-(trifluoromethyl)phenyl)sulfonyl)-3,4-dihydro-2H-benzo[b][1,4]oxazin-2-yl)methyl)cyclobutane-1-carboxylic Acid]		** (The symbol “**” indicates a value in the range of greater than 90 to 150)	** (The symbol “**” indicates a value in the range of greater than 90 to 150)
< 500 nM	< 500 nM		CCOc1cccc(-c2ccc3c(c2)N(S(=O)(=O)c2cccc(C(F)(F)F)c2)C[C@H](CCC(=O)O)O3)c1F [Compound 4AA, (S)-3-(6-(3-ethoxy-2-fluorophenyl)-4-((3-(trifluoromethyl)phenyl)sulfonyl)-3,4-dihydro-2H-benzo[b][1,4]oxazin-2-yl)propanoic acid]	** (The symbol “**” indicates a value in the range of greater than 90 to 150)	**** (The symbol “****” indicates a value greater than 200)	
< 500 nM	< 500 nM		CC(C)(C[C@H]1CN(S(=O)(=O)c2cccc(C(F)(F)F)c2)c2cc(-c3cccc(OC(F)(F)F)c3)ccc2O1)C(=O)O [Compound 32F, (S)-2,2-dimethyl-3-(6-(3-(trifluoromethoxy)phenyl)-4-((3-(trifluoromethyl)phenyl)sulfonyl)-3,4-dihydro-2H-benzo[b][1,4]oxazin-2-yl)propanoic acid]	** (The symbol “**” indicates a value in the range of greater than 90 to 150)	**** (The symbol “****” indicates a value greater than 200)	
	< 500 nM	500 to 5000 nM	CC[C@H](C[C@H]1CN(S(=O)(=O)c2cccc(C(F)(F)F)c2)c2cc(-c3cc(F)cc(F)c3Cl)ccc2O1)C(=O)O [Compound 46F, (R)-2-(((S)-6-(2-chloro-3,5-difluorophenyl)-4-((3-(trifluoro-methyl)phenyl)sulfonyl)-3,4-dihydro-2H-benzo[b][1,4]oxazin-2-yl)methyl)butanoic acid]		*** (The symbol “***” indicates a value in the range of greater than 150 to 200)	* (The symbol “*” indicates a value in the range of 25 to 90)
< 500 nM	< 500 nM		O=c1[nH]nc(CC[C@H]2CN(S(=O)(=O)c3cccc(C(F)(F)F)c3)c3cc(-c4cc(F)cc(F)c4Cl)ccc3O2)o1 [Compound 28I, (S)-5-(2-(6-(2-chloro-3,5-difluorophenyl)-4-((3-(trifluoromethyl)phenyl)sulfonyl)-3,4-dihydro-2H-benzo[b][1,4]oxazin-2-yl)ethyl)-1,3,4-oxadiazol-2(3H)-one]	** (The symbol “**” indicates a value in the range of greater than 90 to 150)	**** (The symbol “****” indicates a value greater than 200)	
> 10000 nM	500 to 5000 nM		Cc1ccc(N(C)C)nc1-c1ccc2c(c1)N(S(=O)(=O)c1cccc(C(F)(F)F)c1)C[C@H](CCC(=O)O)O2 [Compound 4AO, (S)-3-(6-(6-(dimethylamino)-3-methylpyridin-2-yl)-4-((3-(trifluoromethyl)phenyl)sul-fonyl)-3,4-dihydro-2H-benzo[b][1,4]oxazin-2-yl)propanoic acid]	* (The symbol “*” indicates a value in the range of 25 to 90)	* (The symbol “*” indicates a value in the range of 25 to 90)	
< 500 nM	< 500 nM		Cc1ccc(F)cc1-c1ccc2c(c1)N(S(=O)(=O)c1cccc(C(F)(F)F)c1)C[C@H](CCC(=O)O)O2 [Compound 2BA, (S)-3-(6-(5-fluoro-2-methylphenyl)-4-((3-(trifluoromethyl)phenyl)sulfonyl)-3,4-dihydro-2H-benzo[b][1,4]oxazin-2-yl)propanoic acid]	** (The symbol “**” indicates a value in the range of greater than 90 to 150)	**** (The symbol “****” indicates a value greater than 200)	
500 to 5000 nM	< 500 nM		O=C(O)[C@@H](O)CC[C@H]1CN(S(=O)(=O)c2cccc(C(F)(F)F)c2)c2cc(-c3cc(F)ccc3F)ccc2O1 [Compound 37, (S)-4-((S)-6-(2,5-difluorophenyl)-4-((3-(trifluoromethyl)phenyl)sulfonyl)-3,4-dihydro-2H-benzo[b][1,4]oxazin-2-yl)-2-hydroxybutanoic acid]	*** (The symbol “***” indicates a value in the range of greater than 150 to 200)	*** (The symbol “***” indicates a value in the range of greater than 150 to 200)	
< 500 nM	< 500 nM		O=C(O)CC[C@H]1CN(S(=O)(=O)c2cccc(C(F)(F)F)c2)c2cc(-c3cccc(C(F)(F)F)n3)cc(F)c2O1 [Compound 22A, (S)-3-(8-fluoro-4-((3-(trifluoromethyl)phenyl)-sulfonyl)-6-(6-(trifluoromethyl)pyridin-2-yl)-3,4-dihydro-2H-benzo[b][1,4]oxazin-2-yl)propanoic acid]	** (The symbol “**” indicates a value in the range of greater than 90 to 150)	**** (The symbol “****” indicates a value greater than 200)	
